Measurements published in patent US7179943B2, “Bicyclic derivatives that modulate voltage-gated potassium channels and methods of use thereof” (Wyeth, priority 2004, dated 2007).

Assays:
[1] = tested on: mouse Elevated Zero Maze; experiment: Anxiolytic activity: mouse Elevated Zero Maze model; type: in vivo; details: 30 min prior to testing, mice; for % Total Distance Traveled (Relative to Control): 3 mg/kg ip.
Method: Anxiolytic activity of the compounds of formula I was determined using the mouse Elevated Zero Maze model, originally described by Shepherd, et al. (Psychopharmocol. (1994) 116:56–64), incorporated herein by reference in its entirety. Anxiolytic efficacy was measured as the ability of the test compound to increase the amount of time that the mice spent in the open zones of the maze. To account for the possibility of false positive results due to increased locomotor activity, total distance traveled during the course of the experiment was also monitored.
The zero maze, constructed of black Perspex, consisted of a circle (outer diameter approximately 60 cm, width 5 cm) that was elevated 55 cm above the floor. The zero maze was divided into 4 equal quadrants, alternating between open and closed. […] Animals were tested under low levels of illumination in the presence of red light. Test animals (male CN57BI/n mice) were group housed with ad lib access to food and water. On the day of testing, animals were brought into the behavioral testing room and allowed to habituate for a period of not less than one-half hour. Test compounds were administered at the appropriate dose ip. 30 min prior to testing on the zero maze. Control animals were administered the test vehicle. Animals were placed on the zero maze with their head and forepaws contained within a closed quadrant. The animals' behavior was then recorded for 4 minutes and the distance traveled, the amount of time spent in, and number of entries into, each quadrant was noted. Behavior was monitored utilizing an automated video tracking system. Results for the test compounds are presented here as the percentage relative to that obtained with the control animals.

[2] = target: T1, human Kv1.1/Kvβ1 potassium ion channel complex (Homo sapiens, UniProt Q09470); experiment: Xenopus oocytes current assay (inhibition of inactivation, voltage clamp); type: cell-based; details: Xenopus oocytes expressing hKv1.1/hKvβ1, relative to control bath solution, read-out: Percent Increase in Steady State Current Of human Kv1.1/Kvβ1 @ a concentration of 50 μM
T1 construct: expressed in transfected cells; host or cells: Xenopus oocytes injected with cRNA
Method: The compounds of formula I were examined for their ability to inhibit the inactivation of the human Kv1.1/Kvβ1 potassium ion channel complex in vitro using electrophysiological current recordings on inactivating Kv1.1/Kvβ1 channels expressed in Xenopus oocytes. Xenopus oocytes were harvested from frogs under general anesthesia using aseptic techniques. Oocytes were treated with 2 mg/ml collagenase for 1–1.5 hr, defolliculated, and injected with 40 nL cRNA (a mixture of hky1.1 and hKvβ1) produced using standard molecular biological techniques (Sambrook, et al., 1989, Molecular Cloning: A Laboratory Manual). The concentration of hKv1.1/hKvp1 cRNA varies, but was generally about 50 ng/μL hKv1.1 and […] hKβ1.
Currents were recorded using standard voltage clamp amplifiers at room temperature. Recordings were performed in the bath solution “ND-96” containing 96 mM NaCl, 2 mM KCl, 1 mm CaCl2, 1 mM MgCl2, 10 mM HEPES and […] Gentamycin (pH=7.6). The pipette (electrode) solution generally consisted of […]. Electrodes were made from WPI TW150F-4 borosilicate glass (or equivalent) and typically had resistances of 0.5–1.5 Mohms. The standard current-voltage (IV) pulse protocol consisted of voltage steps from −60 mV to +50 mV, in 10 mV increments for 200 ms, at a frequency of one IV set per 2 minutes. Data were digitized and analyzed by standard software packages.
Solutions of the test compounds consisting of test compounds dissolved in bath solution were applied by bath perfusion using gravity or pump-driven flow. A minimum of 2 mL (10 times the bath volume) over 3 minutes were flowed for each compound concentration tested. Data were averaged across at least 3 cells tested for each concentration.
Test compounds were examined for their ability to inhibit the inactivation of the steady state portion of the IV curve.

T1 sequence (Q09470 whole entry, one chain of several): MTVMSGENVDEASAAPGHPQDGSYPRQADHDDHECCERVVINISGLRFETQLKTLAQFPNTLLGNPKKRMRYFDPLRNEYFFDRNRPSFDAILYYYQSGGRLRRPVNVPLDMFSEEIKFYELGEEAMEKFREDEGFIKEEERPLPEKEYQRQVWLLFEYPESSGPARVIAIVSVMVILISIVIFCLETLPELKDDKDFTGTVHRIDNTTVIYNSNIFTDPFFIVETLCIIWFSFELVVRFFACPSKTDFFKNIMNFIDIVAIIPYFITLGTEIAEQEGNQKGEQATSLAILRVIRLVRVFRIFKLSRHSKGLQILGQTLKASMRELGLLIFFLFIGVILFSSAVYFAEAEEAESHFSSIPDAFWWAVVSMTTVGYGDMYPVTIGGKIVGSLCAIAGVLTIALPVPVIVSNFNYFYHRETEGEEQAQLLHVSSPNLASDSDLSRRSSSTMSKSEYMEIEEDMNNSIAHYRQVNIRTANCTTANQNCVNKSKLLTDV

| SMILES | % Total Distance Traveled (Relative to Control) [1] [%] | % Total Distance Traveled (Relative to Control) ([1]; listed as diazepam) | % Time Spent in Open Zones (Relative to Control) ([1]; 60 mg/kg ip.) [%] | activation at 50 µM [2] [%] | melting point [°C] |
| --- | --- | --- | --- | --- | --- |
| CN1C(=O)CN=C(c2ccccc2)c2cc(Cl)ccc21 [Diazepam, reference compound] | 75 | small decrease | – | – | – |
| CC1(C)C2CC[C@]1(C)C(=O)C(C(=O)Nc1cccc(C(F)(F)F)c1)C2=O (stereo partly drawn) [Example 2, (1S)-N-[3-(trifluoromethyl)phenyl]-1,8,8-trimethyl-2,4-dioxobicyclo[3.2.1] octane-3-carboxamide] | – | – | 140 | 22 | 60 to 62 |
| CC1(C)C2CC[C@]1(C)C(=O)C(C(=O)Nc1ccc(F)c(Cl)c1)C2=O (stereo partly drawn) [Example 10, (1S)-N-[3-chloro-4-fluorophenyl]-1,8,8-trimethyl-2,4-dioxobicyclo[3.2.1] octane-3-carboxamide] | – | – | – | 137 | 87 to 89 |
| CC1(C)C2CC[C@@]1(C)C(=O)C(C(=O)Nc1cc(C(F)(F)F)cc(C(F)(F)F)c1)C2=O (stereo partly drawn) [Example 12, (1R)-N-[3,5-bis(trifluoromethyl)phenyl]-1,8,8-trimethyl-2,4-dioxobicyclo [3.2.1]octane-3-carboxamide] | – | – | – | 22 | 68 to 71 |
| CC1(C)C2CC[C@@]1(C)C(=O)C(C(=O)Nc1cc(Cl)cc(Cl)c1)C2=O (stereo partly drawn) [Example 13, (1R)-N-(3,5-dichlorophenyl)-1,8,8-trimethyl-2,4-dioxobicyclo[3.2.1]octane-3-carboxamide] | – | – | – | 19 | 115 to 117 |
| CC1(C)C2CC[C@@]1(C)C(=O)C(C(=O)Nc1ccc([N+](=O)[O-])cc1)C2=O (stereo partly drawn) [Example 15, (1R)-N-(4-nitrophenyl)-1,8,8-trimethyl-2,4-dioxobicyclo[3.2.1]octane-3-carboxamide] | – | – | – | 75 | 168 to 170 |
| CC1(C)C2CC[C@@]1(C)C(=O)C(C(=O)Nc1ccc(Cl)c(C(F)(F)F)c1)C2=O (stereo partly drawn) [Example 16, (1R)-N-[4-chloro-3-(trifluoromethyl)phenyl]-1,8,8-trimethyl-2,4-dioxobicyclo [3.2.1]octane-3-carboxamide] | – | – | – | 45 | 117 to 119 |
| CC1(C)C2CC[C@@]1(C)C(=O)C(C(=O)Nc1ccc(C(F)(F)F)cc1)C2=O (stereo partly drawn) [Example 18, (1R)-N-[4-(trifluoromethyl)phenyl]-1,8,8-trimethyl-2,4-dioxobicyclo[3.2.1] octane-3-carboxamide] | – | – | – | 96 | 78 to 81 |
| CC1(C)C2CC[C@@]1(C)C(=O)C(C(=O)Nc1ccc(Cl)cc1)C2=O (stereo partly drawn) [Example 19, (1R)-N-[4-chlorophenyl]-1,8,8-trimethyl-2,4-dioxobicyclo[3.2.1]octane-3-carboxamide] | – | – | – | 14 | 88 to 90 |
| CC1(C)C2CC[C@@]1(C)C(=O)C(C(=O)Nc1ccc(F)c(Cl)c1)C2=O (stereo partly drawn) [Example 20, (1R)-N-[3-chloro-4-fluorophenyl]-1,8,8-trimethyl-2,4-dioxobicyclo[3.2.1] octane-3-carboxamide] | – | – | – | 267 | 89 to 91 |
| CC1(C)C2CC[C@@]1(C)C(=O)C(C(=O)Nc1ccc(F)c(C(F)(F)F)c1)C2=O (stereo partly drawn) [Example 21, (1R)-N-[3(trifluoromethyl)-4-fluorophenyl]-1,8,8-trimethyl-2,4-dioxobicyclo [3.2.1]octane-3-carboxamide] | – | – | – | 229 | 96 to 98 |
| O=C(Nc1cccc(C(F)(F)F)c1)C1C(=O)C2CCC(C2)C1=O (stereo not shown) [Example 22, N-[3-(trifluoromethyl)phenyl]-2,4-dioxobicyclo[3.2.1]octane-3-carboxamide] | – | – | – | 41 | 68 to 69 |
| O=C(Nc1cc(C(F)(F)F)cc(C(F)(F)F)c1)C1C(=O)C2CCC(C2)C1=O (stereo not shown) [Example 23, N-[3,5-bis(trifluoromethyl)phenyl]-2,4-dioxobicyclo[3.2.1]octane-3-carboxamide] | – | – | – | 137 | 88 to 90 |
| O=C(Nc1ccc(Cl)c(C(F)(F)F)c1)C1C(=O)C2CCC(C2)C1=O (stereo not shown) [Example 25, N-[4-chloro-3-(trifluoromethyl)phenyl]-2,4-dioxobicyclo[3.2.1]octane-3-carboxamide] | – | – | – | 47 | 136 to 137 |
| O=C(Nc1ccc(F)c(C(F)(F)F)c1)C1C(=O)C2CCC(C2)C1=O (stereo not shown) [Example 27, N-[4-fluoro-3-(trifluoromethyl)phenyl]-2,4-dioxobicyclo[3.2.1]octane-3-carboxamide] | – | – | – | 43 | 97 to 100 |
